The text below walks through data of EP3294317B1, “ENHANCED ANTIBIOTIC COMPOSITION” (Universitat Autònoma de Barcelona, priority 2015, dated 2016).

Test [1] deals with Escherichia coli ATCC 25922. The test can be described thus: Colistin broth microdilution MIC with potentiator compounds (Example 1). It counts as cell-based. The settings on record: E. coli ATCC 25922; MIC in the presence of 1.0% DMSO / MIC in the presence of 0.1 mM potentiator compound and 1.0% DMSO; positive = increased, negative = decreased susceptibility, 1 = no effect.
Test [2] concerns S. maltophilia OC323. The test can be described thus: Colistin broth microdilution MIC with compound of formula I prepared in methanol or DMSO (Example 6). Type of test: cell-based, Stenotrophomonas maltophilia. The conditions noted are these: MIC in the presence of 1.0% DMSO / MIC in the presence of 0.1 mM of compound of formula I and 1.0% DMSO. The method, then:
(§1) The potentiator effect of the compound of the invention in a new formulation was tested by using colistin sulphate as antibiotic in combination with the enhancer compound of formula I in front of resistant clinical isolates. […]
(§2) Tests were performed to determine the potentiator effect of the compound of the invention with two colistin resistant S. maltophilia strains as shown in Table 9. S. maltophilia K279a is a reference clinical strain. The origin of clinical strain OC323 together with K279a has been described previously (Huedo et al., Two Different rpf Clusters Distributed among a Population of Stenotrophomonas maltophilia Clinical Strains Display Differential Diffusible Signal Factor Production and Virulence Regulation, J. Bacteriol., 2014, 196, 2431-2442).
(§3) Selected compound of formula I was first dissolved in 100% of Methanol (HPLC Gradient Grade CHROMASOLV. Sigma, 34885-1L-R) to 10 mM. The compound was fairly soluble in methanol up to 10 mM and required vigorous vortex.
(§4) […] MICs were determined as described in the Example 1.
(§5) Strains colistin minimal inhibitory concentration (MIC), expressed in µg/mL, and the fold increase in bacterial susceptibility to colistin when combined with the potentiator compound previously dissolved in methanol ([…]) are shown in Table 9: TABLE 9
(In general: Dilution methods test growth across graded concentrations, often in twofold steps.)

Test [3] relates to S. maltophilia K279a. The test is described as above. It counts as cell-based, Stenotrophomonas maltophilia. The conditions noted are these: MIC in the presence of 1.0% DMSO / MIC in the presence of 0.1 mM of compound of formula I and 1.0% DMSO. As to the method:
as §1, §2, §3, §4, §5

Test [4] relates to S. aureus V8. The test can be described thus: Broth microdilution MIC of compound of formula I alone (Example 5). Type of test: cell-based. The conditions noted are these: Staphylococcus aureus, ATCC49775, Reference strain, ATCC 49775, read-out: Compound of formula I MIC in the presence of 1.0% DMSO. The method, then: (§6) The antimicrobial effect of the compound of formula I of the invention was tested in front of specific Gram-positive bacterium, Staphylococcus aureus, an agent usually involved in hospital-acquired infections. For this experiment the S. aureus reference and clinical isolates shown in Table 8 were used, including Methicillin-resistant S. aureus (MRSA): TABLE 8
(§7) Antimicrobial susceptibility testing of these isolates was performed using the broth microdilution (BMD) method, according to CLSI guidelines (Example 1).
(§8) Selected compound of formula I was first dissolved in 100% of sterile-filtered dimethyl sulfoxide (DMSO, Sigma, D2438) to 20 mM. 100 µL of bacterial suspension (final OD550nm=0.01) in MHB were added to the compound dilutions in each well (concentration range from 0.2 mM to 3.125 µM), and the final suspension was mixed and incubated without shaking at 37° C for 24 h before developing with 30 µL of a 0.01% aqueous solution of resazurin. For the experiment all bacteria were first grown overnight in CAMHB using CLSI recommended incubation conditions.
(§9) The compound MIC, expressed in mM, was defined as the lowest concentration of compound at which no visible growth was obtained.

For test [5], the system named is S. aureus Newman. Described as above. Type of test: cell-based. The settings on record: Staphylococcus aureus, NBRC102137 / NEWMAN, Reference strain, NBRC 102137, read-out: Compound of formula I MIC in the presence of 1.0% DMSO. The method, then:
as §6, §7, §8, §9

Test [6] has as its system S. aureus RN6390. Described as above. It counts as cell-based. The conditions noted are these: Staphylococcus aureus, RN6390, read-out: Compound of formula I MIC in the presence of 1.0% DMSO. As to the method:
as §6, §7, §8, §9

Test [7] concerns S. aureus SA0004. The description is as above. Type of test: cell-based. The conditions noted are these: Staphylococcus aureus, Clinical strain, (MRSA, and resistant to ciprofloxacin and cloxacillin), read-out: Compound of formula I MIC in the presence of 1.0% DMSO. As to the method: as §6, §7, §8, §9
In test [8] the test system is S. aureus Seatle 1945. Described as above. Type of test: cell-based. The conditions noted are these: Staphylococcus aureus, ATCC25923, Reference strain, ATCC 25923, read-out: Compound of formula I MIC in the presence of 1.0% DMSO. As to the method:
as §6, §7, §8, §9

Test [9] concerns S. aureus F-182. The test is described as above. It counts as cell-based. The conditions noted are these: Staphylococcus aureus, ATCC43300, Reference strain, ATCC 43300 (CLSI standard), read-out: Compound of formula I MIC in the presence of 1.0% DMSO. As to the method:
as §6, §7, §8, §9

For test [10], the system named is S. aureus USA 300. The test is described as above. Type of test: cell-based. The settings on record: Staphylococcus aureus, ATCC BAA-1556 / MRSA / USA300, Reference strain, read-out: Compound of formula I MIC in the presence of 1.0% DMSO. The method, then: as §6, §7, §8, §9
Test [11] has as its system S. aureus SA0002. The test is described as above. It counts as cell-based. The conditions noted are these: Staphylococcus aureus, Clinical strain, (resistant to penicillin), read-out: Compound of formula I MIC in the presence of 1.0% DMSO. The method, then: as §6, §7, §8, §9
The test system of test [12] is S. aureus SA0003. Described as above. It counts as cell-based. The settings on record: Staphylococcus aureus, Clinical strain, (resistant to penicillin), read-out: Compound of formula I MIC in the presence of 1.0% DMSO. As to the method:
as §6, §7, §8, §9

The subject of test [13] is S. aureus SA0001. Described as above. Type of test: cell-based. The conditions noted are these: Staphylococcus aureus, Clinical strain, (resistant to penicillin), read-out: Compound of formula I MIC in the presence of 1.0% DMSO. The method, then: as §6, §7, §8, §9
Test [14] concerns S. aureus RN6911. The description is as above. Type of test: cell-based. The conditions noted are these: Staphylococcus aureus, RN6911, read-out: Compound of formula I MIC in the presence of 1.0% DMSO. The method, then:
as §6, §7, §8, §9

In test [15] the test system is S. aureus RN4220. The test is described as above. It counts as cell-based. The settings on record: Staphylococcus aureus, RN4220, read-out: Compound of formula I MIC in the presence of 1.0% DMSO. The method, then:
as §6, §7, §8, §9

Test [16] has as its system Pseudomonas aeruginosa ATCC 27853. The test can be described thus: Colistin broth microdilution MIC with potentiator compounds (Example 1). It counts as cell-based. The settings on record: P. aeruginosa ATCC 27853; MIC in the presence of 1.0% DMSO / MIC in the presence of 0.1 mM potentiator compound and 1.0% DMSO; positive = increased, negative = decreased susceptibility, 1 = no effect.

Structures are written as SMILES.

By MIC is commonly meant the smallest concentration in the dilution series that meets the test's criterion for growth inhibition. On to `CN(C)CCNC(=O)c1cccc(CNC(=O)Nc2ccc3c(c2)Cc2ccccc2-3)c1` [I, N-[2-(dimethylamino)ethyl]-3-[(9H-fluoren-2-ylcarbamoylamino)methyl]benzamide], for which the “Fold increase in bacterial susceptibility to colistin” value is “+2 fold” in test [1], “+4 fold” in [2], “+4 fold” in test [3] and “+2 fold” in [16]. In addition, the MIC in test [4], in test [5], in test [6], in [7], in test [8] and in test [9] was 200 µM throughout. Further, the MIC in [10] stood at 200 µM; in [11], 100 µM; in [12], 100 µM; in [13], 200 µM; in test [14], 200 µM; in test [15] it was 200 µM.
